From the NIST ThermoML archive (doi:10.1021/acs.jced.5b00256)

What was measured:
[1] = relative permittivity at various frequencies (dimensionless); xn = mol fraction of the nth substance listed; details: 100 kPa, Liquid, Frequency=2 MHz, Parallel plate capacitor
[2] = refractive index (Na D-line) (dimensionless); xn = mol fraction of the nth substance listed; details: 100 kPa, Liquid, Standard Abbe refractometry

COc1cccc(Br)c1 [1-bromo-3-methoxybenzene] + CCCO
Details	refractive index, 303.15 K	refractive index, 313.15 K	refractive index, 323.15 K	refractive index, 333.15 K	relative permittivity, 303.15 K	relative permittivity, 313.15 K	relative permittivity, 323.15 K	relative permittivity, 333.15 K
[1], x2 = 0	–	–	–	–	7.01	6.85	6.74	6.6
[1], x2 = 0.107	–	–	–	–	7.18	7.03	6.89	6.7
[1], x2 = 0.206	–	–	–	–	7.55	7.39	7.15	6.95
[1], x2 = 0.296	–	–	–	–	8.05	7.83	7.55	7.23
[1], x2 = 0.38	–	–	–	–	8.67	8.39	8.08	7.65
[1], x2 = 0.457	–	–	–	–	9.46	9.11	8.68	8.2
[1], x2 = 0.529	–	–	–	–	10.27	9.87	9.4	8.74
[1], x2 = 0.596	–	–	–	–	11.08	10.61	10.11	9.38
[1], x2 = 0.658	–	–	–	–	12.04	11.56	10.94	10.15
[1], x2 = 0.716	–	–	–	–	12.93	12.39	11.71	10.89
[1], x2 = 0.771	–	–	–	–	13.98	13.42	12.88	11.8
[1], x2 = 0.822	–	–	–	–	15.14	14.52	13.63	12.43
[1], x2 = 0.871	–	–	–	–	16.23	15.6	14.65	13.33
[1], x2 = 0.916	–	–	–	–	17.33	16.62	15.64	14.3
[1], x2 = 0.959	–	–	–	–	18.58	17.66	16.7	15.22
[2], x2 = 0	1.56	1.558	1.553	1.55	–	–	–	–
[2], x2 = 0.107	1.555	1.552	1.548	1.546	–	–	–	–
[2], x2 = 0.206	1.544	1.54	1.535	1.532	–	–	–	–
[2], x2 = 0.296	1.53	1.528	1.523	1.519	–	–	–	–
[2], x2 = 0.38	1.517	1.515	1.512	1.508	–	–	–	–
[2], x2 = 0.457	1.504	1.501	1.5	1.497	–	–	–	–
[2], x2 = 0.529	1.493	1.489	1.488	1.484	–	–	–	–
[2], x2 = 0.596	1.484	1.482	1.477	1.474	–	–	–	–
[2], x2 = 0.658	1.473	1.468	1.464	1.461	–	–	–	–
[2], x2 = 0.716	1.461	1.458	1.449	1.447	–	–	–	–
[2], x2 = 0.771	1.447	1.444	1.437	1.435	–	–	–	–
[2], x2 = 0.822	1.435	1.429	1.425	1.423	–	–	–	–
[2], x2 = 0.871	1.421	1.418	1.413	1.41	–	–	–	–
[2], x2 = 0.916	1.41	1.405	1.401	1.398	–	–	–	–
[2], x2 = 0.959	1.396	1.392	1.388	1.385	–	–	–	–
